The values that follow come from patent publication US11351224B2, “Pharmaceutical composition for preventing and treating transplant rejection” (IUCF-HYU (INDUSTRY-UNIVERSITY COOPERATION FOUNDATION …, priority 2015, dated 2022).

Test [1] deals with primary mouse CD4-T-cells. Put plainly: Intracellular transfer efficiency of ctCTLA-4 peptide and CPP-ctCTLA-4 fusion products in mouse spleen cells. The following applies: 1 μM, one hour, anti-HA staining. The test is classed as cell-based. The procedure:
Jurkat T-cells were cultured at a density of 5.0×10^5 cells/well on a 24-well plate in RPMI 1640 medium. After the cells were seeded, respective proteins were added at designated times. After culturing, the cells were collected and washed three times with phosphate buffered saline (PBS). Intracellular fluorescence was analyzed with a fluorescence-activated cell sorting (FACS) Canto II flow cytometer (BD Bioscience) and data were analyzed using FlowJo software (Tree Star, INC.). The spleen isolated from the 6-week-old C57BL/6 mice were loaded on a 60 mm×15 mm cell culture dish containing 3 ml of PBS. A single cell suspension was physically prepared using a cell strainer having pores with a size of […], 10 ml of fresh PBS was added thereto and the resulting mixture was centrifuged. […]
Specifically, the transfer efficiency was measured using “3) In vitro transfer efficiency” in the test method, which will be briefly described below.
Mouse spleen cells were cultured together with 1 μM of a ctCTLA-4 peptide, or a dNP2-ctCTLA-4 or Hph-1-ctCTLA-4 fusion product for one hour, and the ctCTLA-4 peptide or CPP-linked ctCTLA-4 fusion products, which had been transferred into cells, were stained with anti-HA antibodies. […] The cells were harvested and intracellular fluorescence was measured using a flow cytometer to measure ctCTLA-4 protein introduction efficiency in primary mouse CD4-T-cells.

Test [2] has as its system spleen cells activated by anti-CD3 and anti-CD28 antibodies. The experiment in a line: IL-2 expression inhibition in spleen cells activated by anti-CD3 and anti-CD28 antibodies (ELISA). The test is classed as cell-based, mouse. The following applies: for IL-2 expression inhibitory efficiency compared to WT: 0.5, 1, 2 or 5 μM. The procedure:
The spleen cells activated by anti-CD3 and anti-CD28 antibodies were treated with 1 μM of each of PBS, the dNP2-ctCTLA-4 fusion product and the TAT-ctCTLA-4 fusion product, and IL-2 expression inhibitory efficiency was measured by ELISA and shown in FIG. 5.
First, a 96-well plate was coated at a concentration of 0.1 μg/well with anti-CD3 (anti-mouse CD3) and anti-CD28 (anti-mouse CD28) monoclonal antibodies at 37° C. for 5 hours, spleen cells were isolated from 7-week-old C57BL/6, and the isolated spleen cells were suspended to be single cells. The spleen cells suspended through the process were seeded at 2.5×10^5 on each well coated with anti-CD3 (anti-mouse CD3) and anti-28 (anti-mouse CD28) monoclonal antibodies, and were treated with 1 μM PBS, the dNP2-ctCTLA-4 fusion product and the TAT-ctCTLA-4 fusion product, and then activated for 24 hours.
The spleen cells activated by the anti-CD3 and anti-CD28 antibodies were each treated with the dNP2-ctCTLA-4 fusion product and the dNP2-EGFP fusion product, and IL-2 expression inhibitory efficiency was measured by ELISA and shown in FIG. 6A. At this time, ELISA was conducted using the kit produced by Biolegend Corporation in accordance with the standard protocol provided by the manufacturer. In addition, spleen cells activated by PMA/ionomycin were treated with the dNP2-ctCTLA-4 fusion product and the dNP2-EGFP fusion product, and IL-2 expression inhibitory efficiency was measured by ELISA and is shown in FIG. 6B.
At this time, the activated spleen cells were activated with the anti-CD3/CD28 antibody or PMA/ionomycin in the presence of 1 μM PBS, the dNP2-ctCTLA-4 fusion product or dNP2-EGFP fusion product for 24 hours.
The spleen cells activated by the anti-CD3 and anti-CD28 antibodies were each treated with 0.5, 1, 2 or 5 μM WT, 1YF, 2YF and DYF, and IL-2 expression inhibitory abilities were measured by ELISA and are shown in FIG. 8.
At this time, the activated spleen cells were activated with anti-CD3/CD28 antibody in the presence of 1 μM PBS, 0.5, 1, 2 or 5 μM WT, 1YF, 2YF, DYF for 24 hours.
The spleen cells activated by anti-CD3 and anti-CD28 antibodies were each treated with 0.1, 0.5, 1, 2 or 5 μM dNP2-TAMRA fusion product, dNP2-CTLA-4 fusion product and dNP2-ctCTLA-4-fm3 fusion product, and IL-2 expression inhibitory efficiency was measured by ELISA and is shown in FIG. 11. At this time, the activated spleen cells were activated with the anti-CD3/CD28 antibody in the presence of 1 μM PBS, 0.1, 0.5, 1, 2 or 5 μM dNP2-TAMRA fusion product, dNP2-CTLA-4 fusion product and dNP2-ctCTLA-4-fm3 fusion product for 24 hours.

For another test, the system named is CD4 T-cells. Put plainly: Inhibition of CD4 T-cell activation (CD25 expression) in mouse spleen cells (FACS). The test is classed as cell-based. The procedure: The present test was conducted to check whether or not the dNP2-TAMRA, dNP2-ctCTLA-4 fusion product and dNP2-ctCTLA-4-fm3 fusion product according to the present invention could inhibit activation of CD4 T-cells in the mouse model. At this time, CD25 was an activation marker which has an increasing expression level when T-cells were activated, and whether or not activation of CD4 T-cells was inhibited based on the amount of expressed CD25 was determined. Specifically, the test method was as follows.
A 96-well plate was coated with 0.1 μg of anti-CD3 and anti-CD28 antibodies in a cell incubator at 37° C. under […] for 5 hours. Then, isolated spleen cells of mice were seeded in a density of 2.5×10^5 on each well. The cells were treated with PBS or 0.1, 0.5, 1, 2 or 5 μM dNP2-TAMRA, dNP2-ctCTLA-4 or dNP2-ctCTLA-4-Fm, and then cultured in a cell incubator at 37° C. under […] for 24 hours. Then, the cells were stained with APC fluorescence-conjugated anti-CD4 mAb and PE fluorescence-fused anti-CD25 mAb at 4° C. for 20 minutes. Then, the cells produced through the aforementioned process were analyzed by a flow cytometer (FACS) to compare amounts of expressed CD25.

Setting [3] is: 0.1, 0.5, 1, 2 or 5 μM, 24 hours.

Turning to “Hph-1-ctCTLA-4: fusion product of cell-penetrating peptide Hph-1 (Sequence ID No. 9) linked to the N-end of ctCTLA-4 peptide (YARVRRRGPRRKMLKKRSPLTTGVYVKMPPTEPECEKQFQPYFIPIN; Hph-1; ctCTLA-4)”, in test [1], the intracellular transfer efficiency result is “further improved”.

As for “2YF: ctCTLA-4 variant, Y residue of the 2Y part substituted by F (KMLKKRSPLTTGVYVKMPPTEPECEKQFQPFFIPIN; ctCTLA-4 2YF)”, the “IL-2 expression inhibitory efficiency compared to WT” value in test [2] (24 hours) is “significant deterioration in IL-2 expression inhibitory efficiency”.

With “1YF: ctCTLA-4 variant, Y residue of the 1Y part substituted by F (KMLKKRSPLTTGVFVKMPPTEPECEKQFQPYFIPIN; ctCTLA-4 1YF)”, in test [2] (24 hours), the “IL-2 expression inhibitory efficiency compared to WT” value is “significant deterioration in IL-2 expression inhibitory efficiency”.

For “DYF: ctCTLA-4 variant, Y residues of both 1Y and 2Y parts substituted by F (KMLKKRSPLTTGVFVKMPPTEPECEKQFQPFFIPIN; ctCTLA-4 DYF)”, the “IL-2 expression inhibitory efficiency compared to WT” value in test [2] (24 hours) was “significant deterioration in IL-2 expression inhibitory efficiency”.

Regarding “ctCTLA-4-fm2: peptide fragment having an amino acid sequence represented by Sequence ID No. 3 (YFIPIN; ctCTLA-4 fm2)”, the “IL-2 expression inhibitory effects of ctCTLA-4 fragment peptides” value (from here on “IL-2 expression inhibitory effects”) in test [2] is listed as “excellent IL-2 expression inhibitory effects”.

As for “ctCTLA-4: peptide of Sequence ID No. 1, 188th to 213th amino acid of the CTLA-4 protein cytoplasmic domain (KMLKKRSPLTTGVYVKMPPTEPECEKQFQPYFIPIN; ctCTLA-4)”, in test [1], the intracellular transfer efficiency entry is on record as “excellent intracellular transfer efficiency”.

As for “dNP2-ctCTLA-4-fm3: fusion product of fusion peptide ctCTLA-4-fm3 (Sequence ID No. 4) and cell-penetrating peptide dNP2 (Sequence ID No. 8) (KIKKVKKKGRKGSKIKKVKKKGRKYVKMPPTEPEYFIPIN; dNP2; ctCTLA-4 fm3)”, in the test with CD4 T-cells (0.1 μM), the “intracellular transfer efficiency (FIG. 10)” value is “excellent intracellular transfer efficiency”. The “CD25 expression in CD4 T-cells” value with CD4 T-cells (setting [3]) is listed as “efficacy similar thereto”. Moreover, the IL-2 expression inhibition entry in test [2] (setting [3]) is on record as “excellent inhibitory activity against IL-2 expression, comparable to the dNP2-ctCTLA-4 fusion protein”.

Regarding “ctCTLA-4-fm1: peptide fragment having an amino acid sequence represented by Sequence ID No. 2 (YVKMPPTEPE; ctCTLA-4 fm1)”, the “IL-2 expression inhibitory effects” value in test [2] is listed as “excellent IL-2 expression inhibitory effects”.

Consider “ctCTLA-4-fm3: fusion peptide of Sequence ID No. 4, wherein Sequence ID No. 2 is combined with Sequence ID No. 3 (YVKMPPTEPEYFIPIN; ctCTLA-4 fm3)”, for which, in test [2], the “IL-2 expression inhibitory effects” value is “excellent IL-2 expression inhibitory effects”.
